The results in this text go back to patent US20250230193A1, “CYCLIC COMPOUND HAVING SELECTIVE KRAS INHIBITORY EFFECT ON HRAS AND NRAS” (CHUGAI SEIYAKU KABUSHIKI KAISHA, priority 2022, published 2025).

The target of assay [1] is GDP-bound HRAS wild-type protein (Homo sapiens, UniProt P01112). The assay is described as follows: Binding to HRAS by surface plasmon resonance (SPR), Single Cycle Kinetics. The note with it: SPR, GDP-bound HRAS wild-type vs GDP-bound KRAS wild-type. In general terms: Surface plasmon resonance follows binding to a sensor surface in real time, without labels.
GDP-bound HRAS wild-type protein, sequence (P01112 whole entry): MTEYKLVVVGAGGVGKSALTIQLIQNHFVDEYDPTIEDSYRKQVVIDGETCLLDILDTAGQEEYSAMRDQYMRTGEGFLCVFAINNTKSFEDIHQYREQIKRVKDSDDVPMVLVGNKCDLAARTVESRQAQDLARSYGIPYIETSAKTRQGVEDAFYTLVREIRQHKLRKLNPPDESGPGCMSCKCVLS
The target in assay [2] is GDP-bound NRAS wild-type protein (Homo sapiens, UniProt P01111). The assay is described as follows: Binding to NRAS by surface plasmon resonance (SPR), Single Cycle Kinetics. The note with it: SPR, GDP-bound NRAS wild-type vs GDP-bound KRAS wild-type.
GDP-bound NRAS wild-type protein, sequence (P01111 whole entry): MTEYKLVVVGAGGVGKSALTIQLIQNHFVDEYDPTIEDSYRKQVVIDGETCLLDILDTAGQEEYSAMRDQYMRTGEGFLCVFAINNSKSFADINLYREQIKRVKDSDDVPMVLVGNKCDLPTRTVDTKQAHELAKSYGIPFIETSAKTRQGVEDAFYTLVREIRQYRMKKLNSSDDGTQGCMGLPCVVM

With `CCCO[C@H](C)[C@@H]1NC(=O)[C@H](COCC)N(C)C(=O)C[C@@H](C(=O)N(C)CC)N(C)C(=O)[C@H](C2CCCC2)N(C)C(=O)C2(CC(C)(C)C2)NC(=O)[C@@H]2C[C@H](C)CN2C(=O)[C@H](CCc2cc(F)c(C(F)(F)F)c(F)c2)NC(=O)CN(C)C(=O)[C@H](Cc2ccc(C)cc2)N2CC/C=C\C[C@@H](C2=O)N(C)C(=O)CN(C)C1=O` [PP2426], the “HRAS/KRAS (ratio of KD value with respect to HRAS to KD value with respect to KRAS)” value in assay [1] is “A (a compound having 10 or more and less than 20 is denoted as A)”. Also, the “NRAS/KRAS (ratio of KD value with respect to NRAS to KD value with respect to KRAS)” value in assay [2] was “AA (a compound having 20 or more is denoted as AA)”.
Regarding `CCOC[C@H]1C(=O)N[C@@H]([C@@H](C)CC)C(=O)N2CCC[C@H]2C(=O)N(C)[C@H]2C/C=C\CCN(C2=O)[C@@H](Cc2ccc(C)cc2)C(=O)N(C)CC(=O)N[C@@H](CCc2ccc(C(F)(F)F)c(OC)c2)C(=O)N2C[C@@H](C)C[C@H]2C(=O)NC2(CC(C)(C)C2)C(=O)N(C)[C@@H](C2CCCC2)C(=O)N(C)[C@H](C(=O)N(C)CC)CC(=O)N1C` [PP2427], in assay [1], the “HRAS/KRAS (ratio of KD value with respect to HRAS to KD value with respect to KRAS)” value was “A (a compound having 10 or more and less than 20 is denoted as A)”. In assay [2], the “NRAS/KRAS (ratio of KD value with respect to NRAS to KD value with respect to KRAS)” value is listed as “AA (a compound having 20 or more is denoted as AA)”.
Regarding `CCOC[C@H]1C(=O)N[C@@H]([C@@H](C)CC)C(=O)N2CCC[C@H]2C(=O)N(C)[C@H]2C/C=C\CCN(C2=O)[C@@H](Cc2ccc(C)cc2)C(=O)N(C)CC(=O)N[C@@H](CCc2cc(F)c(C(F)(F)F)c(F)c2)C(=O)N2C[C@H](OCC)C[C@H]2C(=O)NC2(CC(C)(C)C2)C(=O)N(C)[C@@H](C2CCCC2)C(=O)N(C)[C@H](C(=O)N(C)CC)CC(=O)N1C` [PP2428], the “HRAS/KRAS (ratio of KD value with respect to HRAS to KD value with respect to KRAS)” value in assay [1] is “A (a compound having 10 or more and less than 20 is denoted as A)”. The “NRAS/KRAS (ratio of KD value with respect to NRAS to KD value with respect to KRAS)” value in assay [2] was “A (a compound having 10 or more and less than 20 is denoted as A)”.
With `CCCOC[C@H]1C(=O)N[C@@H]([C@@H](C)CC)C(=O)N2CCC[C@H]2C(=O)N(C)[C@H]2C/C=C\CCN(C2=O)[C@@H](Cc2ccc(C)cc2)C(=O)N(C)CC(=O)N[C@@H](CCc2ccc(C(F)(F)F)c(OC)c2)C(=O)N2C[C@@H](C)C[C@H]2C(=O)NC2(CC(C)(C)C2)C(=O)N(C)[C@@H](C2CCCC2)C(=O)N(C)[C@H](C(=O)N(C)CC)CC(=O)N1C` [PP2429], in assay [1], the “HRAS/KRAS (ratio of KD value with respect to HRAS to KD value with respect to KRAS)” value was “B (a compound having 3 or more and less than 10 is denoted as B)”. In assay [2], the “NRAS/KRAS (ratio of KD value with respect to NRAS to KD value with respect to KRAS)” value is “A (a compound having 10 or more and less than 20 is denoted as A)”.
`CCCOC[C@H]1C(=O)N[C@@H]([C@@H](C)CC)C(=O)N2CCC[C@H]2C(=O)N(C)[C@H]2C/C=C\CCN(C2=O)[C@@H](Cc2ccc(C)cc2)C(=O)N(C)CC(=O)N[C@@H](CCc2cc(F)c(C(F)(F)F)c(F)c2)C(=O)N2C[C@H](C)C[C@H]2C(=O)NC2(CC(C)(C)C2)C(=O)N(C)[C@@H](C2CCCC2)C(=O)N(C)[C@H](C(=O)N(C)CC)CC(=O)N1C` [PP2430]: the “HRAS/KRAS (ratio of KD value with respect to HRAS to KD value with respect to KRAS)” value in assay [1] is “A (a compound having 10 or more and less than 20 is denoted as A)”. For the same compound, the “NRAS/KRAS (ratio of KD value with respect to NRAS to KD value with respect to KRAS)” value in assay [2] was “AA (a compound having 20 or more is denoted as AA)”.
On to `CCCOC[C@H]1C(=O)N[C@@H]([C@@H](C)OCC)C(=O)N2CCC[C@H]2C(=O)N(C)[C@H]2C/C=C\CCN(C2=O)[C@@H](Cc2ccc(C)cc2)C(=O)N(C)CC(=O)N[C@@H](CCc2ccc(C(F)(F)F)c(OC)c2)C(=O)N2C[C@@H](C)C[C@H]2C(=O)NC2(CC(C)(C)C2)C(=O)N(C)[C@@H](C2CCCC2)C(=O)N(C)[C@H](C(=O)N(C)CC)CC(=O)N1C` [PP2431], for which the “HRAS/KRAS (ratio of KD value with respect to HRAS to KD value with respect to KRAS)” value in assay [1] is “A (a compound having 10 or more and less than 20 is denoted as A)”. Moreover, in assay [2], the “NRAS/KRAS (ratio of KD value with respect to NRAS to KD value with respect to KRAS)” value is “A (a compound having 10 or more and less than 20 is denoted as A)”.
As for `CCCOC[C@H]1C(=O)N[C@@H]([C@@H](C)OCC)C(=O)N2CCC[C@H]2C(=O)N(C)[C@H]2C/C=C\CCN(C2=O)[C@@H](Cc2ccc(C)cc2)C(=O)N(C)CC(=O)N[C@@H](CCc2cc(F)c(C(F)(F)F)c(F)c2)C(=O)N2C[C@H](OCC)C[C@H]2C(=O)NC2(CC(C)(C)C2)C(=O)N(C)[C@@H](C2CCCC2)C(=O)N(C)[C@H](C(=O)N(C)CC)CC(=O)N1C` [PP2432], the “HRAS/KRAS (ratio of KD value with respect to HRAS to KD value with respect to KRAS)” value in assay [1] is “A (a compound having 10 or more and less than 20 is denoted as A)”. The “NRAS/KRAS (ratio of KD value with respect to NRAS to KD value with respect to KRAS)” value in assay [2] was “A (a compound having 10 or more and less than 20 is denoted as A)”.
On to `CCOC[C@H]1C(=O)N[C@@H]([C@@H](C)OCC)C(=O)N2CCC[C@H]2C(=O)N(C)[C@H]2C/C=C\CCN(C2=O)[C@@H](Cc2ccc(C)cc2)C(=O)N(C)CC(=O)N[C@@H](CCc2ccc(C(F)(F)F)c(OC)c2)C(=O)N2C[C@@H](C)C[C@H]2C(=O)NC2(CC(C)(C)C2)C(=O)N(C)[C@@H](C2CCCC2)C(=O)N(C)[C@H](C(=O)N(C)CC)CC(=O)N1C` [PP2433], for which, in assay [1], the “HRAS/KRAS (ratio of KD value with respect to HRAS to KD value with respect to KRAS)” value is “A (a compound having 10 or more and less than 20 is denoted as A)”. Also, the “NRAS/KRAS (ratio of KD value with respect to NRAS to KD value with respect to KRAS)” value in assay [2] is on record as “AA (a compound having 20 or more is denoted as AA)”.
For the compound `CCCO[C@H](C)[C@@H]1NC(=O)[C@H](COCC)N(C)C(=O)C[C@@H](C(=O)N(C)CC)N(C)C(=O)[C@H](C2CCCC2)N(C)C(=O)C2(CC(C)(C)C2)NC(=O)[C@@H]2C[C@@H](OCC)CN2C(=O)[C@H](CCc2cc(F)c(C(F)(F)F)c(F)c2)NC(=O)CN(C)C(=O)[C@H](Cc2ccc(C)cc2)N2CC/C=C\C[C@@H](C2=O)N(C)C(=O)[C@@H]2CCCN2C1=O` [PP2436], in assay [1], the “HRAS/KRAS (ratio of KD value with respect to HRAS to KD value with respect to KRAS)” value was “A (a compound having 10 or more and less than 20 is denoted as A)”. Also, in assay [2], the “NRAS/KRAS (ratio of KD value with respect to NRAS to KD value with respect to KRAS)” value was “A (a compound having 10 or more and less than 20 is denoted as A)”.
On to `CC[C@H](C)[C@@H]1NC(=O)[C@H](COC)N(C)C(=O)C[C@@H](C(=O)N(C)CC)N(C)C(=O)[C@H](C2CCCC2)N(C)C(=O)C2(CC(C)(C)C2)NC(=O)[C@@H]2C[C@H](C)CN2C(=O)[C@H](CCc2cc(F)c(C(F)(F)F)c(F)c2)NC(=O)CN(C)C(=O)[C@H](Cc2ccc(C)cc2)N2CC/C=C\C[C@@H](C2=O)N(C)C(=O)CN(C)C1=O` [PP2437], for which the “HRAS/KRAS (ratio of KD value with respect to HRAS to KD value with respect to KRAS)” value in assay [1] is “A (a compound having 10 or more and less than 20 is denoted as A)”. Further, the “NRAS/KRAS (ratio of KD value with respect to NRAS to KD value with respect to KRAS)” value in assay [2] was “A (a compound having 10 or more and less than 20 is denoted as A)”.
Take `CCO[C@@H]1C[C@H]2C(=O)NC3(CC(C)(C)C3)C(=O)N(C)[C@@H](C(CC)CC)C(=O)N(C)[C@H](C(=O)N(C)C)CC(=O)N(C)[C@@H](COC)C(=O)N[C@@H]([C@@H](C)CC)C(=O)N(C)CC(=O)N(C)[C@H]3C/C=C\CCN(C3=O)[C@@H](CC3CCC(F)(F)CC3)C(=O)N(C)CC(=O)N[C@@H](CCc3ccc(C(F)(F)F)c(OC)c3)C(=O)N2C1` [PP2438]: the “HRAS/KRAS (ratio of KD value with respect to HRAS to KD value with respect to KRAS)” value in assay [1] was “A (a compound having 10 or more and less than 20 is denoted as A)”. Further, the “NRAS/KRAS (ratio of KD value with respect to NRAS to KD value with respect to KRAS)” value in assay [2] was “A (a compound having 10 or more and less than 20 is denoted as A)”.
For the compound `CCOC[C@H]1C(=O)N[C@@H]([C@@H](C)CC)C(=O)N(C)CC(=O)N(C)[C@H]2C/C=C\CCN(C2=O)[C@@H](Cc2ccc(C)cc2)C(=O)N(C)CC(=O)N[C@@H](CCc2cc(F)c(C(F)(F)F)c(F)c2)C(=O)N2C[C@@H](C)C[C@H]2C(=O)NC2(CC(C)(C)C2)C(=O)N(C)[C@@H](C2CCCC2)C(=O)N(C)[C@H](C(=O)N(C)C)CC(=O)N1C` [PP2439], in assay [1], the “HRAS/KRAS (ratio of KD value with respect to HRAS to KD value with respect to KRAS)” value was “A (a compound having 10 or more and less than 20 is denoted as A)”. Also, the “NRAS/KRAS (ratio of KD value with respect to NRAS to KD value with respect to KRAS)” value in assay [2] was “A (a compound having 10 or more and less than 20 is denoted as A)”.
As for `CCO[C@@H]1C[C@H]2C(=O)NC3(CC(C)(C)C3)C(=O)N(C)[C@@H](C(CC)CC)C(=O)N(C)[C@H](C(=O)N(C)C)CC(=O)N(C)[C@@H](COC)C(=O)N[C@@H]([C@@H](C)CC)C(=O)N(C)CC(=O)N(C)[C@H]3C/C=C\CCN(C3=O)[C@@H](CC3CCC(F)(F)CC3)C(=O)N(C)CC(=O)N[C@@H](CCc3cc(F)c(C(F)(F)F)c(F)c3)C(=O)N2C1` [PP2440], in assay [1], the “HRAS/KRAS (ratio of KD value with respect to HRAS to KD value with respect to KRAS)” value is “A (a compound having 10 or more and less than 20 is denoted as A)”. Besides, the “NRAS/KRAS (ratio of KD value with respect to NRAS to KD value with respect to KRAS)” value in assay [2] is “A (a compound having 10 or more and less than 20 is denoted as A)”.
For `CC[C@H](C)[C@@H]1NC(=O)[C@H](COC)N(C)C(=O)C[C@@H](C(=O)N(CC)CC)N(C)C(=O)[C@H](C2CCCC2)N(C)C(=O)C2(CC(C)(C)C2)NC(=O)[C@@H]2C[C@H](C)CN2C(=O)[C@H](CCc2ccc(C(F)(F)F)c(OC)c2)NC(=O)CN(C)C(=O)[C@H](Cc2ccc(C)cc2)N2CC/C=C\C[C@@H](C2=O)N(C)C(=O)CN(C)C1=O` [PP2441], the “HRAS/KRAS (ratio of KD value with respect to HRAS to KD value with respect to KRAS)” value in assay [1] was “A (a compound having 10 or more and less than 20 is denoted as A)”. In addition, the “NRAS/KRAS (ratio of KD value with respect to NRAS to KD value with respect to KRAS)” value in assay [2] was “AA (a compound having 20 or more is denoted as AA)”.
On to `CCC(CC)[C@H]1C(=O)N(C)[C@H](C(=O)N(C)C)CC(=O)N(C)[C@@H](COC)C(=O)N[C@@H]([C@@H](C)CC)C(=O)N(C)CC(=O)N(C)[C@H]2C/C=C\CCN(C2=O)[C@@H](CC2CCC(F)(F)CC2)C(=O)N(C)CC(=O)N[C@@H](CCc2ccc(C(F)(F)F)c(OC)c2)C(=O)N2C[C@@H](C)C[C@H]2C(=O)NC2(CC(C)(C)C2)C(=O)N1C` [PP2442], for which the “HRAS/KRAS (ratio of KD value with respect to HRAS to KD value with respect to KRAS)” value in assay [1] is “A (a compound having 10 or more and less than 20 is denoted as A)”. Moreover, the “NRAS/KRAS (ratio of KD value with respect to NRAS to KD value with respect to KRAS)” value in assay [2] is “A (a compound having 10 or more and less than 20 is denoted as A)”.
